# What was measured:
# JAK2 JHI JH2 = molecular target: T1, JAK2 JHI JH2 (Homo sapiens, UniProt O60674); experiment: Select Screen kinase profiling; format: biochemical
# T1 construct: JAK2 JHI JH2
# Text: (§1) The thieno[3,2-d]pyrimidine scaffold has been used extensively in the design of kinase inhibitors.
# JAK3 = JAK3 (Homo sapiens, UniProt P52333); experiment: Select Screen kinase profiling; format: biochemical
# Text: as §1
# TYK2 = TYK2 (Homo sapiens, UniProt P29597); experiment: Select Screen kinase profiling; format: biochemical
# Text: as §1
# PIK3C2A = PIK3C2A (Homo sapiens, UniProt O00443); experiment: Select Screen kinase profiling; format: biochemical
# Text: as §1
# PIK3C3 = PIK3C3 (Homo sapiens, UniProt Q8NEB9); experiment: Select Screen kinase profiling; format: biochemical
# Text: as §1
# SRC = SRC (Homo sapiens, UniProt P12931); experiment: Select Screen kinase profiling; format: biochemical
# Text: as §1
# JAK2 = JAK2 (Homo sapiens, UniProt O60674); experiment: Select Screen kinase profiling; format: biochemical
# Text: as §1
# SRC N1 = SRC N1 (Homo sapiens, UniProt P12931); experiment: Select Screen kinase profiling; format: biochemical
# Text: as §1
# PIK3CD/PIK3R1 = PIK3CD/PIK3R1 (Homo sapiens, UniProt O00329); experiment: Select Screen kinase profiling; format: biochemical
# Text: as §1
# PIK3CG = PIK3CG (Homo sapiens, UniProt P48736); experiment: Select Screen kinase profiling; format: biochemical
# Text: as §1
# JAK1 = JAK1 (Homo sapiens, UniProt P23458); experiment: Select Screen kinase profiling; format: biochemical
# Text: as §1
# LTK (TYK1) = LTK (TYK1) (Homo sapiens, UniProt P29376); experiment: Select Screen kinase profiling; format: biochemical
# Text: as §1
# JAK2 JH1 JH2 V617F = molecular target: T2, JAK2 JH1 JH2 V617F (Homo sapiens, UniProt O60674, V617F); experiment: Select Screen kinase profiling; format: biochemical
# T2 construct: JAK2 JH1 JH2 V617F
# Text: as §1
# FRAP1 (mTOR) = FRAP1 (mTOR) (Homo sapiens, UniProt P42345); experiment: Select Screen kinase profiling; format: biochemical
# Text: as §1
# PRKD2 (PKD2) = PRKD2 (PKD2) (Homo sapiens, UniProt Q9BZL6); experiment: Select Screen kinase profiling; format: biochemical
# Text: as §1
# PRKCN (PKD3) = PRKCN (PKD3) (Homo sapiens, UniProt O94806); experiment: Select Screen kinase profiling; format: biochemical
# Text: as §1
# PIK3CA/PIK3R1 = PIK3CA/PIK3R1 (Homo sapiens, UniProt P42336); experiment: Select Screen kinase profiling; format: biochemical
# Text: as §1
# PIK3C2B = PIK3C2B (Homo sapiens, UniProt O00750); experiment: Select Screen kinase profiling; format: biochemical
# Text: as §1
# [1] = test system: susceptible fungal strains; experiment: Antifungal MIC95 comparison on susceptible fungal strains; format: cell-based; conditions: MIC95, Table 3 fungal strains
# Procedure: Evaluation of antimicrobial activity in vitro. Compounds were tested against the following panel of bacteria and fungi purchased from the American Type Culture Collection (ATCC). Briefly, bacteria were grown to mid-log phase, diluted with fresh medium to an optical density at 600 nm (OD600) of 0.030-0.060 and then diluted again 1:10. This suspension (195 μL) was added to wells in a 96 well microtiter plate (Sarstedt) and 5 μL of compound dissolved in DMSO was added to give a final concentration of 100-0.1 μM at 2.5% DMSO by volume. A DMSO negative control and standard antibiotic positive controls were included in each plate. All compounds were tested in triplicate for each concentration. Plates were sealed with parafilm, placed in a Ziploc bag to prevent evaporation, and incubated at 30° C. (fungi) or 37° C. (bacteria) for 16-20 hours (48 hours for C. neoformans). The OD600 values for each well were determined with a plate reader (Biotek, EL800) and the data were standardized to the DMSO control wells after subtracting the background from blank medium. Initial single concentrations were tested at 100 μM and active compounds were further tested with at least nine concentrations for a full dose response. Dose response curves were generated using GraphPad Prism 5 software and used to determine the MIC95 concentrations (minimal concentration that inhibits 95% of growth). […]
# [2] = test system: human lymphocytic CEM cells; experiment: Cell proliferation assay, CEM; format: cell-based; conditions: CCRF-CEM, 72 h proliferation, Coulter counter
# Procedure: (§2) Cell proliferation assays for several of the compounds were performed on L1210, a mouse lymphocytic leukemia cell line; CCRF-CEM [39] an acute lymphoblastic leukemia cell line; and HeLa, a human cancer cell line derived from a human cervical adenocarcinoma. Murine Leukemia L1210, human lymphocytic CEM and human cervix carcinoma HeLa cells were obtained from the American Type Culture Collection (ATCC) (Rockville, Md.). All assays were performed in 96-well microtiter plates. To each well were added (5-7.5)×10^4 tumor cells and a given amount of the test compound. The cells were allowed to proliferate for 48 h (murine leukemia L1210 cells) or 72 h (human lymphocytic CEM and human cervix carcinoma HeLa cells) at 37° C. in a humidified CO2-controlled atmosphere. At the end of the incubation period, the cells were counted in a Coulter counter. The IC50 (50% inhibitory concentration) was defined as the concentration of the compound that inhibited cell proliferation by 50%. […] Presence of C7 iodine on the 2,4-dichloro pyrrolo[3,2-d] (compound 20) increases the anticancer activity by a factor of 5 when compared to compound 19. […] This alludes to a) importance of C7-I towards activity against cancer cell lines for the 2,4-O-benzylated analogues (15 and 16).
# [3] = test system: human cervix carcinoma HeLa cells; experiment: Cell proliferation assay, HeLa; format: cell-based; conditions: 72 h proliferation, Coulter counter
# Procedure: as §2
# MDA-MB-231 cells = experiment: Apoptosis (annexin V), MDA-MB-231; format: cell-based, human; conditions: MDA-MB-231, tested concentration
# Procedure: Cell-cycle and apoptosis studies were conducted in MDA-MB-231 cells. Cell-cycle analysis of compound 19 at 15 μM concentration lead to arrest of 60% cells in G2/M stage. Similarly, at 1.75 μM concentration, compound 20 arrested 30% of cells in G2/M stage. […] To evaluate the possible mechanism for arrest of cell proliferation, cell-cycle distribution was measured using propidium iodide staining and flow cytometry. […] There are several possibilities that could account for this, including: (i) that cell lysis occurs rapidly following induction of apoptosis, preventing significant accumulation of annexin V-positive bodies, or (ii) that a distinct cell death pathway is triggered by compound 19.
# PIK3C2B, sequence (O00750 whole entry): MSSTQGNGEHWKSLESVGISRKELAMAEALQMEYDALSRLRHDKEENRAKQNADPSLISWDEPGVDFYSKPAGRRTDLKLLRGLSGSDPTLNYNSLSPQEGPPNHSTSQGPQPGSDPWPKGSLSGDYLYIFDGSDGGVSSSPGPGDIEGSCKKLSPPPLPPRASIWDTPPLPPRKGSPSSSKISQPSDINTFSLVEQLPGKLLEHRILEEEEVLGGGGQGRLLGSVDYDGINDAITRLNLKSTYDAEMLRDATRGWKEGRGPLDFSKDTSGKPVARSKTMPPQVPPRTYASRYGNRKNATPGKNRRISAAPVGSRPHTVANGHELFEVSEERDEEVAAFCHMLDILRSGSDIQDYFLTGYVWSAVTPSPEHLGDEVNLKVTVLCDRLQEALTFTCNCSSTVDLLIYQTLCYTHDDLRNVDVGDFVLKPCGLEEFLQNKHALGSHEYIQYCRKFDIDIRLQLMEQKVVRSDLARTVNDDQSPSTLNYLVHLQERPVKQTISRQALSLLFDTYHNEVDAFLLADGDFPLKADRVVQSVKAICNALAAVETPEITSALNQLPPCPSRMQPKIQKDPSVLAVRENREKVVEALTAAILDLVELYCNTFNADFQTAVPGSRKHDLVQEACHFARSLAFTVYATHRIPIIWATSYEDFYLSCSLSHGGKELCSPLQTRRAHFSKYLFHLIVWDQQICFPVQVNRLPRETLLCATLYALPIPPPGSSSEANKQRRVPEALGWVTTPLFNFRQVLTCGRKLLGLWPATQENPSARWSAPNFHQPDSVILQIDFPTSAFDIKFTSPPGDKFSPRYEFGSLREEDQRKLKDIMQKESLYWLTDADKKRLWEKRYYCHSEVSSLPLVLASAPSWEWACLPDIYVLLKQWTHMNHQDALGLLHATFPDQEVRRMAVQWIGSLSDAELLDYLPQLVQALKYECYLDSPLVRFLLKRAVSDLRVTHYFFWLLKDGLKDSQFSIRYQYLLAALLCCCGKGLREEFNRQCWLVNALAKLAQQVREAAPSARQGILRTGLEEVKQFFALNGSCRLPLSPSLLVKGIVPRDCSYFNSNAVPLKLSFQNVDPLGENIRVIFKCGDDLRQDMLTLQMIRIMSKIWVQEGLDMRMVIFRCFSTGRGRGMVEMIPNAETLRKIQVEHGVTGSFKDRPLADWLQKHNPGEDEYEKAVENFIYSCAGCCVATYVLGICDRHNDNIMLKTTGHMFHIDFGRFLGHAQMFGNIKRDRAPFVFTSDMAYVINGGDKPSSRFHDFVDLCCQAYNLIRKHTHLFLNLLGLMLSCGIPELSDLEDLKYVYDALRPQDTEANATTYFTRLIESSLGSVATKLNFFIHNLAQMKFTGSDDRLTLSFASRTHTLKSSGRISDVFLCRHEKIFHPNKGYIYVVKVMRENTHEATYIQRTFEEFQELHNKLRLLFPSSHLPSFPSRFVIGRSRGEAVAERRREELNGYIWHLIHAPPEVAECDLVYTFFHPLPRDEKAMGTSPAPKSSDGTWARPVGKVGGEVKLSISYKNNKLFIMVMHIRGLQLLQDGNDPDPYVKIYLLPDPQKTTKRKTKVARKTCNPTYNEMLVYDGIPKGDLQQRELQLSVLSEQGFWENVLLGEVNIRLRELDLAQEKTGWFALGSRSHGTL
# LTK (TYK1), sequence (P29376 17-864): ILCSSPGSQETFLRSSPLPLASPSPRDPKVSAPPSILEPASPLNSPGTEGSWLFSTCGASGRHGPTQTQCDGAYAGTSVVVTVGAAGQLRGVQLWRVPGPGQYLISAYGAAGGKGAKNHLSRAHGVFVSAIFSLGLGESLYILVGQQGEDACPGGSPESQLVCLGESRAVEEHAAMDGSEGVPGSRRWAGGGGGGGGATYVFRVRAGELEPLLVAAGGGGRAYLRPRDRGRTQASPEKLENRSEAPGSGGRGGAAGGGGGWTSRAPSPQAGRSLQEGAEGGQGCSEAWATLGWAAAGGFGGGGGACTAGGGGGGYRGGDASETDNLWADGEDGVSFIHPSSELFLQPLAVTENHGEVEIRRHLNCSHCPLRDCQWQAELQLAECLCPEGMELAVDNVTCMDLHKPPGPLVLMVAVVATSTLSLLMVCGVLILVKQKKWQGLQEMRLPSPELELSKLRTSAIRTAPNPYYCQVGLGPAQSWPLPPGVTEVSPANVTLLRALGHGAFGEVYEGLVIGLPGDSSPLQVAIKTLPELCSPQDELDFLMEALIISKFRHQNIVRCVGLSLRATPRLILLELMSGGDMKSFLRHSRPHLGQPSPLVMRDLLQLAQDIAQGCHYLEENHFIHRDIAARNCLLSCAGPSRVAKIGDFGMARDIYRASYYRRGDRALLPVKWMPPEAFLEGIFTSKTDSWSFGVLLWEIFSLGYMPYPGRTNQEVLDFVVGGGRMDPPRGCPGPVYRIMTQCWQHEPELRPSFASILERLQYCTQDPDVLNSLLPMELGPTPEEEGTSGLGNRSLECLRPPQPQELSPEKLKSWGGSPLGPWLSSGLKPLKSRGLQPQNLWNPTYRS
# SRC, sequence (P12931 whole entry): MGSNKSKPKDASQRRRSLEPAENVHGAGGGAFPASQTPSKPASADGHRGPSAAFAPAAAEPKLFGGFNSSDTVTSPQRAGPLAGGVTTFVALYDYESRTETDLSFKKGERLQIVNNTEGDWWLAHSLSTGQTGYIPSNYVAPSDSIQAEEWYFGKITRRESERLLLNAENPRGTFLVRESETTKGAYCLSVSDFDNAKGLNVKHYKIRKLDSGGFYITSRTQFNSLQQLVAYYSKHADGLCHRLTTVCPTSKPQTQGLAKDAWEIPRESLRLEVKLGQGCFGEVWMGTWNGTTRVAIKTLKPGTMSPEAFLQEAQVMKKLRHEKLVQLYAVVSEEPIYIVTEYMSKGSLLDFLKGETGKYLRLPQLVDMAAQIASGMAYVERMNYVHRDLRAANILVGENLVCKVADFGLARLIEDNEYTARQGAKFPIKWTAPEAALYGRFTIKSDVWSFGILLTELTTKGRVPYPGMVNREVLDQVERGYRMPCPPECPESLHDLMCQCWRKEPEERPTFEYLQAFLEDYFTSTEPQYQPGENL
# JAK2, sequence (O60674 whole entry): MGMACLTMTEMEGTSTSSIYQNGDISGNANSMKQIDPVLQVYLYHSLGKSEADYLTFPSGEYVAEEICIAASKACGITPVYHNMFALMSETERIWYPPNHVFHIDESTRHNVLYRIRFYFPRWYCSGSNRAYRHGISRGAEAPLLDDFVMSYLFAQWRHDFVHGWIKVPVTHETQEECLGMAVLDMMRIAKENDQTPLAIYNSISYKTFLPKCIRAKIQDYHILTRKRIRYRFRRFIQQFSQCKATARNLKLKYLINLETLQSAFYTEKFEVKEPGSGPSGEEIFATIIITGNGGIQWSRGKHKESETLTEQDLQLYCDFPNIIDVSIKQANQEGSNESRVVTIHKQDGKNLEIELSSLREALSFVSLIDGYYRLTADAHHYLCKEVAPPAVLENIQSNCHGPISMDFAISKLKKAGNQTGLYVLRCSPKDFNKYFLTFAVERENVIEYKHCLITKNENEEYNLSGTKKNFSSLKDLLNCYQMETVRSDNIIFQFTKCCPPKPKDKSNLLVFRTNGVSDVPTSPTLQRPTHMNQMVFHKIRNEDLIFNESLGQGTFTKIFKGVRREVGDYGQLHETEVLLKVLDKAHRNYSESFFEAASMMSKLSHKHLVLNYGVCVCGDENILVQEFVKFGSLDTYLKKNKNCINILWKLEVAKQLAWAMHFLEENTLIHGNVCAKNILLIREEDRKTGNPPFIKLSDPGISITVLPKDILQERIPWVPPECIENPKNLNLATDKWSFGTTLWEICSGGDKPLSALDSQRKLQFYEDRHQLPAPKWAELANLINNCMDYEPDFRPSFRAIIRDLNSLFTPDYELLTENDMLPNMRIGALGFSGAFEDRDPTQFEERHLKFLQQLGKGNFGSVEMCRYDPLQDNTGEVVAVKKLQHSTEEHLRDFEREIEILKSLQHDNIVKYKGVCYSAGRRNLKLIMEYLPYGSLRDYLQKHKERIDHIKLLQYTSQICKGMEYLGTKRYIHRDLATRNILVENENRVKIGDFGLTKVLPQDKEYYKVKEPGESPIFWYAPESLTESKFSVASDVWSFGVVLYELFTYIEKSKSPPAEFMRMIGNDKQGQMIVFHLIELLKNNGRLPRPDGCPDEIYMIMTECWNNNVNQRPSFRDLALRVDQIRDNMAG
# PRKCN (PKD3), sequence (O94806 whole entry): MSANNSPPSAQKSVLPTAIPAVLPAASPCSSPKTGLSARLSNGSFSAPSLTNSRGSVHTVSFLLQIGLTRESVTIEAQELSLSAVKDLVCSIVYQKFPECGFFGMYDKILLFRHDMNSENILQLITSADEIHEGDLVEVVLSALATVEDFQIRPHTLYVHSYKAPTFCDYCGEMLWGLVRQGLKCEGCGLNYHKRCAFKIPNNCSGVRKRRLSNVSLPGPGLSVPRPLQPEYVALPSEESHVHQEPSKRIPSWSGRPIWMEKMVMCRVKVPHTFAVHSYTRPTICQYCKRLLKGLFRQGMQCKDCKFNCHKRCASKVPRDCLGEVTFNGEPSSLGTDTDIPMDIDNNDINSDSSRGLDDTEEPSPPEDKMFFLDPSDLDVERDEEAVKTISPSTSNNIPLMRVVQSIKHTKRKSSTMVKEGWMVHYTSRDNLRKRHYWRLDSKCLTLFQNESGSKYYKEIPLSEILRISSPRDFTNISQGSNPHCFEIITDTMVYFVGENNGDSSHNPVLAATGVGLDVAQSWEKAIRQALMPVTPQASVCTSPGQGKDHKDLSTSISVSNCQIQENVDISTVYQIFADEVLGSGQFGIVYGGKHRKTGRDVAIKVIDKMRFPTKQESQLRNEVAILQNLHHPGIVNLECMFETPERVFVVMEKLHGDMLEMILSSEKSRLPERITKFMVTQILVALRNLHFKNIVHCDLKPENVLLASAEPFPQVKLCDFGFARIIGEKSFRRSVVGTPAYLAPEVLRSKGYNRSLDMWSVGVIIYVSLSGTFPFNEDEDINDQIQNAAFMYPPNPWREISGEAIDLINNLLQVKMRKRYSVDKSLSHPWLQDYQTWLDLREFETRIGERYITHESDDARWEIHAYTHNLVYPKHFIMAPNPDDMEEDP
smiles,measurement,setting,value
"Clc1nc(Cl)c2sccc2n1 [Compound 1, 2,4-Dichlorothieno[3,2-d]pyrimidine]",inhibition at 5 µM,JAK2 JHI JH2,< 40%
same,inhibition at 5 µM,JAK3,< 40%
same,inhibition at 5 µM,TYK2,< 40%
same,inhibition at 5 µM,PIK3C2A,< 40%
same,inhibition at 5 µM,PIK3C3,< 40%
same,inhibition at 5 µM,SRC,< 40%
same,inhibition at 5 µM,JAK2,< 40%
same,inhibition at 5 µM,SRC N1,< 40%
same,inhibition at 5 µM,PIK3CD/PIK3R1,< 40%
same,inhibition at 5 µM,PIK3CG,< 40%
same,inhibition at 5 µM,JAK1,< 40%
same,inhibition at 5 µM,LTK (TYK1),< 40%
same,inhibition at 5 µM,JAK2 JH1 JH2 V617F,< 40%
same,inhibition at 5 µM,FRAP1 (mTOR),< 40%
same,inhibition at 5 µM,PRKD2 (PKD2),< 40%
same,inhibition at 5 µM,PRKCN (PKD3),< 40%
same,inhibition at 5 µM,PIK3CA/PIK3R1,< 40%
same,inhibition at 5 µM,PIK3C2B,< 40%
"Clc1nc(Cl)c2scc(Br)c2n1 [Compound 2, 7-Bromo-2,4-dichlorothieno[3,2-d]pyrimidine]",times more potent than compound 1,[1],2-5
"Clc1nc(Cl)c2[nH]ccc2n1 [Compound 19, 2,4-Dichloropyrrolo[3,2-d]pyrimidine]",IC50,[2],25 µM
same,IC50,[3],19 µM
same,annexin V-positive cells,MDA-MB-231 cells,modest (although statistically significant) increase
